Test results: patent US20250122456A1, “MICRO-PHY[…] FOR IMMUNE RESPONSE MODELING” (priority 2023, published 2025)

Test system: gut-liver interaction with immune cells
Assay: donor-matched gut-liver interaction with immune cells challenged with Poly:IC
Type: cell-based, human
Conditions: intestinal challenge, mimicking viral infection, FIG. 12
Excerpt: A single-cell RNA sequencing characterization of 3 donor-matched blood, gut and liver tissue is shown at 1202. On top, T cell clustering per tissue is shown, including PBMCS (PB), liver (L), and gut lamina propria (LP) and intraepithelial space (IEL). On the bottom, a distribution of major T cell subtypes per tissue is shown including CD4 T cells, CD8 T cells, and gamma-delta T cells. […] The interacting system was challenged with Poly:IC mimicking viral infection. […] On the bottom, liver albumin production data compare the three conditions.

Substance: Poly: IC
- inflammatory cytokines detected in common media: significant induction
